Tests used:
[1] = system: Tetranychus urticae (two-spotted spider mite); test: Example B4: activity against Tetranychus urticae, sprayed bean leaf discs (feeding/residual contact, preventive); conditions: foliar, 192 h, read-out: activity (egg, larval and adult mortality)
[2] = system: Myzus persicae (green peach aphid); test: Example B2: activity against Myzus persicae, pea seedling roots in test solution (systemic/feeding, curative); conditions: 144 h, read-out: activity (mortality)
[3] = system: Myzus persicae (green peach aphid); test: Example B1: activity against Myzus persicae, sprayed sunflower leaf discs (feeding/residual contact, preventive); conditions: foliar, 144 h, read-out: activity (mortality)
[4] = system: Myzus persicae (green peach aphid); test: Example B17: activity against Myzus persicae on sprayed pepper plants (feeding/residual contact); format: in vivo; conditions: 144 h, infested pepper plants sprayed, 6 days

SMILES | mortality at 400 ppm [1] [%] | mortality at 400 ppm [2] [%] | mortality at 400 ppm [3] [%] | mortality at 200 ppm [4] [%]
CCOC(=O)OC1=C(c2c(C)cc(C)cc2C)C(=O)N(OC(=O)C2CC2)C12CCN(OC)CC2 [P1.16] | > 80 | > 80 | – | –
CCOC(=O)OC1=C(c2c(C)cc(-c3ccc(Cl)cc3)cc2C)C(=O)N(OCOC)C12CCN(OC)CC2 [P1.20] | – | – | > 80 | –
CCOC(=O)OC1=C(c2cc(Br)ccc2C)C(=O)N(OCOC)C12CCN(OC)CC2 [P1.21] | > 80 | – | – | –
CCOC(=O)OC1=C(c2c(C)cc(C)cc2C)C(=O)N(OC2CCCCC2)C12CCN(OC)CC2 [P1.30] | – | – | > 80 | –
CCOC(=O)OC1=C(c2cc(C)c(Cl)cc2C)C(=O)N(OCOC)C12CCN(OC)CC2 [P1.32] | – | – | – | ≥ 80
CCOC(=O)OC1=C(c2cc(C)c(Cl)cc2C)C(=O)N(OCCOC)C12CCN(OC)CC2 [P1.33] | – | – | > 80 | –
CCOC(=O)OC1=C(c2cc(C)c(Cl)cc2C)C(=O)N(OC)C12CCN(OC)CC2 [P1.34] | – | – | > 80 | –
CCOC(=O)OC1=C(c2cc(C)c(C)cc2Cl)C(=O)N(OCCOC)C12CCN(OC)CC2 [P1.35] | – | > 80 | > 80 | –
CCOC(=O)OC1=C(c2cc(C)c(C)cc2C)C(=O)N(OCCOC)C12CCN(OC)CC2 [P1.36] | – | – | > 80 | –
CCOC(=O)OC1=C(c2c(C)ccc(Cl)c2C)C(=O)N(OC)C12CCN(OC)CC2 [P1.37] | – | – | > 80 | ≥ 80
CCOC(=O)OC1=C(c2cc(C)c(C)cc2Cl)C(=O)N(OCOC)C12CCN(OC)CC2 [P1.38] | – | – | > 80 | ≥ 80
CCOC(=O)OC1=C(c2cc(C)c(C)cc2Cl)C(=O)N(OC)C12CCN(OC)CC2 [P1.39] | – | – | > 80 | –
CCOC(=O)OC1=C(c2c(Cl)ccc(C)c2F)C(=O)N(OC)C12CCN(OC)CC2 [P1.41] | – | > 80 | – | –
CCOC(=O)OC1=C(c2c(Cl)ccc(C)c2F)C(=O)N(OCOC)C12CCN(OC)CC2 [P1.42] | – | > 80 | – | –
CCOC(=O)OC1=C(c2c(C)cc(C)c(C)c2C)C(=O)N(OCCOC)C12CCN(OC)CC2 [P1.46] | – | > 80 | – | –
CCOC(=O)OC1=C(c2ccc(C)cc2C)C(=O)N(OCOC)C12CCN(OC)CC2 [P1.50] | – | > 80 | > 80 | –
CCOC(=O)OC1=C(c2cc(C)c(C)cc2Br)C(=O)N(OCOC)C12CCN(OC)CC2 [P1.52] | – | > 80 | – | –
CCOC(=O)OC1=C(c2cc(C)c(C)cc2C)C(=O)N(OC)C12CCN(OC)CC2 [P1.57] | – | > 80 | > 80 | ≥ 80
CCOC(=O)OC1=C(c2c(C)cc(Br)cc2C)C(=O)N(OC2CCCO2)C12CCN(OC)CC2 (centres unmarked) [P1.63] | – | > 80 | > 80 | ≥ 80
CCOC(=O)OC1=C(c2cc(C)c(C)cc2Cl)C(=O)N(OC2CCCO2)C12CCN(OC)CC2 (centres unmarked) [P1.64] | – | > 80 | – | –
CCOC(=O)OC1=C(c2c(C)ccc(Cl)c2C)C(=O)N(OCCOC)C12CCN(OC)CC2 [P1.65] | – | > 80 | – | ≥ 80
CCOC(=O)OC1=C(c2c(C)cc(C)cc2Br)C(=O)N(OC)C12CCN(OC)CC2 [P1.66] | – | > 80 | > 80 | –
CCOC(=O)OC1=C(c2c(C)cc(C)cc2Br)C(=O)N(OCCOC)C12CCN(OC)CC2 [P1.67] | – | > 80 | > 80 | –

SMILES | mortality at 400 ppm [1] [%] | mortality at 400 ppm [2] [%] | mortality at 400 ppm [3] [%] | mortality at 200 ppm [4] [%]
CCOC(=O)OC1=C(c2c(C)cc(C)cc2Br)C(=O)N(OCOC)C12CCN(OC)CC2 [P1.68] | – | > 80 | > 80 | –
CCOC(=O)OC1=C(c2c(C)cccc2C)C(=O)N(OCCOC)C12CCN(OC)CC2 [P1.73] | – | > 80 | > 80 | ≥ 80
CCOC(=O)OC1=C(c2c(C)cc(C)cc2C)C(=O)N(OC2COC2)C12CCN(OC)CC2 [P1.79] | – | > 80 | – | ≥ 80
CCOC(=O)OC1=C(c2c(C)cc(C)cc2C)C(=O)N(OCC2CCSCC2)C12CCN(OC)CC2 [P1.80] | > 80 | – | – | –
CCOC(=O)OC1=C(c2cc(Br)c(C)cc2C)C(=O)N(OCOC)C12CCN(OC)CC2 [P1.87] | > 80 | – | – | –
CCOC(=O)OC1=C(c2c(C)cc(Br)cc2C)C(=O)N(OCCOC)C12CCN(OC)CC2 [P1.89] | – | > 80 | > 80 | ≥ 80
CCOC(=O)OC1=C(c2c(F)ccc(C)c2Cl)C(=O)N(OC2CCCO2)C12CCN(OC)CC2 (centres unmarked) [P1.102] | – | > 80 | – | –
CCOC(=O)OC1=C(c2cc(C)c(Cl)cc2C)C(=O)N(OC2CCCO2)C12CCN(OC)CC2 (centres unmarked) [P1.103] | – | – | > 80 | –
CCOC(=O)OC1=C(c2c(C)cc(C)cc2C)C(=O)N(OCC2CCCCC2)C12CCN(OC)CC2 [P1.105] | > 80 | – | – | –
CCOC(=O)OC1=C(c2c(C)cc(C)cc2C)C(=O)N(OC2CCOC2)C12CCN(OC)CC2 (centres unmarked) [P1.108] | – | > 80 | > 80 | –
CON1CCC2(CC1)C(O)=C(c1cc(C)c(Cl)cc1C)C(=O)N2OC [P2,31] | – | – | – | ≥ 80
CON1CCC2(CC1)C(O)=C(c1c(C)cc(C)cc1C)C(=O)N2OC1CCCCC1 [P2.26, 1-Cyclohexyloxy-4-hydroxy-8-methoxy-3-(2,4,6-trimethyl-phenyl)-1,8-diaza-spiro[4.5]dec-3-en-2-one] | > 80 | – | – | –
COCON1C(=O)C(c2cc(C)c(Cl)cc2C)=C(O)C12CCN(OC)CC2 [P2.27] | – | > 80 | – | –
COCCCON1C(=O)C(c2c(C)cc(C)cc2C)=C(O)C12CCN(OC)CC2 [P2.28] | – | > 80 | > 80 | –
COCCON1C(=O)C(c2cc(C)c(Cl)cc2C)=C(O)C12CCN(OC)CC2 [P2.29] | – | – | – | ≥ 80
COCCON1C(=O)C(c2cc(C)c(C)cc2Cl)=C(O)C12CCN(OC)CC2 [P2.32] | – | > 80 | – | –
CON1CCC2(CC1)C(O)=C(c1ccc(C)cc1C)C(=O)N2OC1CCCO1 (centres unmarked) [P2.33] | – | > 80 | > 80 | ≥ 80
CON1CCC2(CC1)C(O)=C(c1cc(C)c(C)cc1C)C(=O)N2OC [P2.36] | – | – | > 80 | ≥ 80
COCCON1C(=O)C(c2cc(C)c(C)cc2C)=C(O)C12CCN(OC)CC2 [P2.37] | – | – | > 80 | –
COCON1C(=O)C(c2cc(C)c(C)cc2C)=C(O)C12CCN(OC)CC2 [P2.38] | – | – | > 80 | ≥ 80
CON1CCC2(CC1)C(O)=C(c1c(C)ccc(Cl)c1C)C(=O)N2OC [P2.40] | – | > 80 | > 80 | ≥ 80
COCON1C(=O)C(c2cc(C)c(C)cc2Br)=C(O)C12CCN(OC)CC2 [P2.41] | – | > 80 | > 80 | –
CON1CCC2(CC1)C(O)=C(c1cc(C)c(C)cc1Cl)C(=O)N2OC [P2.43] | – | – | – | ≥ 80

SMILES | mortality at 400 ppm [1] [%] | mortality at 400 ppm [2] [%] | mortality at 400 ppm [3] [%] | mortality at 200 ppm [4] [%]
CON1CCC2(CC1)C(O)=C(c1c(Cl)ccc(C)c1F)C(=O)N2OC1CCCO1 (centres unmarked) [P2.44] | – | > 80 | – | –
CON1CCC2(CC1)C(O)=C(c1c(Cl)ccc(C)c1F)C(=O)N2OC1CCCO1 (centres unmarked) [P2.45] | > 80 | – | – | –
COCON1C(=O)C(c2c(Cl)ccc(C)c2F)=C(O)C12CCN(OC)CC2 [P2.46] | – | > 80 | – | –
CON1CCC2(CC1)C(O)=C(c1c(C)cc(C)c(C)c1C)C(=O)N2OC [P2.49] | – | > 80 | – | –
COCON1C(=O)C(c2ccc(C)cc2C)=C(O)C12CCN(OC)CC2 [P2.52] | – | > 80 | > 80 | –
COCCON1C(=O)C(c2cc(C)c(C)cc2Br)=C(O)C12CCN(OC)CC2 [P2.53] | – | > 80 | – | –
COCCON1C(=O)C(c2c(F)ccc(C)c2Cl)=C(O)C12CCN(OC)CC2 [P2.59] | – | > 80 | – | –
CCOCON1C(=O)C(c2ccc(C)cc2C)=C(O)C12CCN(OC)CC2 [P2.61] | – | > 80 | > 80 | –
CON1CCC2(CC1)C(O)=C(c1c(C)cc(C)cc1C)C(=O)N2OC1COC1 [P2.66] | – | > 80 | > 80 | ≥ 80
COCCON1C(=O)C(c2c(C)ccc(Cl)c2C)=C(O)C12CCN(OC)CC2 [P2.70] | – | > 80 | > 80 | ≥ 80
COCON1C(=O)C(c2c(C)ccc(Cl)c2C)=C(O)C12CCN(OC)CC2 [P2.71] | – | > 80 | – | ≥ 80
COCON1C(=O)C(c2c(C)cc(C)cc2Br)=C(O)C12CCN(OC)CC2 [P2.72] | – | > 80 | > 80 | –
COCON1C(=O)C(c2cc(Br)c(C)cc2C)=C(O)C12CCN(OC)CC2 [P2.74] | – | – | > 80 | –
CON1CCC2(CC1)C(O)=C(c1cc(Br)c(C)cc1C)C(=O)N2OC1CCCO1 (centres unmarked) [P2.76] | > 80 | – | – | –
CON1CCC2(CC1)C(O)=C(c1c(C)cccc1C)C(=O)N2OC [P2.78] | – | > 80 | > 80 | ≥ 80
COCCON1C(=O)C(c2c(C)cc(Br)cc2C)=C(O)C12CCN(OC)CC2 [P2.80] | – | > 80 | > 80 | –
CON1CCC2(CC1)C(O)=C(c1c(C)cc(C)cc1C)C(=O)N2OCC1CCSCC1 [P2.82] | – | – | – | ≥ 80
CON1CCC2(CC1)C(O)=C(c1c(F)ccc(C)c1Cl)C(=O)N2OC1CCCO1 (centres unmarked) [P2.92] | – | > 80 | > 80 | –
CON1CCC2(CC1)C(O)=C(c1cc(C)c(Cl)cc1C)C(=O)N2OC1CCCO1 (centres unmarked) [P2.93] | – | – | > 80 | –
CON1CCC(ON2C(=O)C(c3c(C)cc(C)cc3C)=C(O)C23CCN(OC)CC3)CC1 [P2.95] | – | > 80 | – | ≥ 80
CON1CCC2(CC1)C(O)=C(c1c(C)cc(C)cc1C)C(=O)N2OC1CCOC1 (centres unmarked) [P2.98] | – | > 80 | > 80 | –
CON1CCC2(CC1)C(O)=C(c1c(C)cc(C)cc1C)C(=O)N2OCCSC [P2.99] | – | > 80 | – | ≥ 80
